Data reported in patent US7253296B2, “Acylated aminopropanediols and analogues and therapeutic uses thereof” (Genfit, priority 2003, dated 2007).

Assays:
[1] = tested on: LDL; test: Protection against LDL oxidation induced by copper (conjugated diene formation, OD 234 nm); type: biochemical; conditions: for intrinsic antioxidant properties (delay of copper-induced LDL oxidation): FIG. 2; for shift of the lag phase latency (conjugated diene formation): relative to control sample, FIG. 2a
Description: Oxidation of LDL is an important modification which plays a major role in the onset and development of atherosclerosis (Jurgens, Hoff et al. 1987). […] Unless otherwise indicated, all reagents were from Sigma (St Quentin, France).
LDL were prepared as described in Lebeau et al. (Lebeau, Furman et al. 2000). The solutions of the test compounds were prepared at 10^−2 M in ethanol and diluted in PBS so that the final concentration ranged from 0.1 to 100 μM with a total ethanol concentration of 1% (VN).
Before oxidation, EDTA was removed from the LDL preparation by dialysis. The oxidation reaction was then carried out at 30° C. by adding 100 μl of 16.6 μM CuSO4 to 800 μl of LDL (125 μg protein/ml) and 100 μl of a test compound solution. The formation of dienes, the species to be followed, was measured by the optical density at 234 nm in the samples treated with the compounds in the presence or absence of copper. Optical density at 234 nm was measured every 10 minutes for 8 hours on a thermostated spectrophotometer (Kontron Uvikon 930). The analyses were carried out in triplicate. A compound was considered to have antioxidant activity when it shifted the lag phase latency relative to the control sample. […] FIG. 2 presents an example of the results obtained with the inventive compounds.

[2] = target: T1, Gal4/hPPARα (Homo sapiens, UniProt Q07869); test: Gal4/PPARα transactivation system in HepG2 cells (luciferase reporter); conditions: for induction factor (luminescent signal of treated cells divided by that of untreated cells): HepG2 cells, Gal4/PPARα, 24 h, FIG. 3
T1 sequence (Q07869 239-466 limits assumed): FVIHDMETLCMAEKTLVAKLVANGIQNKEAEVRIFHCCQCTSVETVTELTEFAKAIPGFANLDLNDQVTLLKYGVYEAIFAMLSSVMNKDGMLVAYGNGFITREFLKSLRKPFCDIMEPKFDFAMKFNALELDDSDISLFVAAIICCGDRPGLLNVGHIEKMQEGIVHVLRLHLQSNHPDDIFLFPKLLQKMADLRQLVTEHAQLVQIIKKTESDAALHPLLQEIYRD
Description: PPAR activation was tested in vitro in RK13 fibroblast cell lines or in a hematocyte line HepG2 by measuring the transcriptional activity of chimeras composed of the DNA binding domain of the yeast gal4 transcription factor and the ligand binding domain of the different PPARs.
HepG2 cells were from ECACC (Porton Down, UK) and were grown in DMEM medium supplemented with 10% (VN) fetal calf serum, 100 U/ml penicillin (Gibco, Paisley, UK) and 2 mM L-glutamine (Gibco, Paisley, UK). The culture medium was changed every two days. Cells were kept at 37° C. in a humidified 95% air/5% CO2 atmosphere.
The plasmids pG5TkpGL3, pRL-CMV, pGal4-hPPAR□, pGal4-hPPAR□ and pGal4-f have been described by Raspe et al. (Raspe, Madsen et al. 1999).
HepG2 cells were seeded in 24-well culture dishes at 5×10^4 cells/well and transfected for 2 hours with the reporter plasmid pG5TkpGL3 (50 ng/well), the expression vectors pGal4-f, pGal4-mPPARα, pGal4-hPPARα, pGal4-hPPARγ, pGal4-hPPARβ (100 ng/well) and the transfection efficiency control vector pRL-CMV (1 ng/well) according to the previously described protocol (Raspe, Madsen et al. 1999), then incubated for 36 hours with the test compounds. At the end of the experiment, the cells were lysed (Gibco, Paisley, UK) and luciferase activity was determined with a Dual-Luciferase™ Reporter Assay System kit (Promega, Madison, Wis., USA) according to the supplier's instructions. The protein content of the cell extracts was then measured with the Bio-Rad Protein Assay kit (Bio-Rad, Munich, Germany) as directed by the supplier.
The results are expressed as the induction factor (luminescent signal of treated cells divided by luminescent signal of untreated cells) after the different treatments.

Row | Molecule | melting point | intrinsic antioxidant properties (delay of copper-induced LDL oxidation) [1] | shift of the lag phase latency (conjugated diene formation) [1] | induction factor (luminescent signal of treated cells divided by that of untreated cells) ([2]; 5 μM) | induction factor (luminescent signal of treated cells divided by that of untreated cells) ([2]; 15 μM) | induction factor (luminescent signal of treated cells divided by that of untreated cells) ([2]; 50 μM) | induction factor (luminescent signal of treated cells divided by that of untreated cells) ([2]; 100 μM) | PPARα activation (luciferase activity / luminescent signal), in words ([2]; cells transfected with pGal4-hPPARα plasmid)
1 | CCCCCCCCCCCCCCCC(=S)OC(CN)CN.Cl.Cl | 224 °C (dec.) |  |  |  |  |  |  | 
2 | 1,2-(dipalmitoyloxy)-3-tetradecylthioacetylaminopropane [Ex 4] |  | exhibit intrinsic antioxidant properties | 34.3% |  |  |  |  | 
3 | 1,2-(ditetradecylthioacetyloxy)-3-palmitoylaminopropane [Ex 6] |  | exhibit intrinsic antioxidant properties |  | 1.1 fold | 2.2 fold | 9.6 fold | 14.5 fold | induced an increase in the luminescent signal
4 | 1,2-(ditetradecylthioacetyloxy)-3-tetradecylthioacetylaminopropane [Ex 5] |  | exhibit intrinsic antioxidant properties |  | 1,2 fold | 2.5 fold | 7 fold | 10.5 fold | 
5 | CCCCCCCCCCCCCCSCC(=O)NCC(O)CO (stereo not shown) [Ex 2, 3-(tetradecylthioacetylamino)propane-1,2-diol] |  | exhibit intrinsic antioxidant properties | more than 13% | 1.5 fold | 7.7 fold | 19.8 fold | 19.2 fold | 
6 | CCCCCCCCCCCCCCCC(=O)NCC(O)CO (stereo not shown) [Ex 3, 3-(palmitoylamino)propane-1,2-diol] | 104 to 108 °C |  |  |  |  |  |  | 
7 | CCCCCCCCCCCCCCSCC(=O)NCC(CNC(=O)CSCCCCCCCCCCCCCC)OC(=O)CSCCCCCCCCCCCCCC [Ex 11, 1,3-ditetradecylthioacetylamino-2-(tetradecylthioacetyloxy)propane] |  | exhibit intrinsic antioxidant properties |  |  |  |  |  | 
